Source: patent publication US4443436A, “C-20-Modified macrolide derivatives of the macrolide antibiotics tylosin, desmycosin, macrocin, and lactenocin” (Eli Lilly and Company, priority 1982, dated 1984)
≈ marks a conversion by molar mass, not a printed value. Where two headings read alike, the source gives them in different places.

Columns and labels:
[1] = test system: Staphylococcus aureus X1.1; assay: MIC, standard agar-dilution assay, Staphylococcus aureus X1.1; assay type: cell-based
[2] = test system: Staphylococcus aureus V41; assay: MIC, standard agar-dilution assay, Staphylococcus aureus V41; assay type: cell-based
[3] = test system: Staphylococcus aureus X400; assay: MIC, standard agar-dilution assay, Staphylococcus aureus X400; assay type: cell-based
[4] = test system: Staphylococcus aureus S13E; assay: MIC, standard agar-dilution assay, Staphylococcus aureus S13E; assay type: cell-based
[5] = test system: Staphylococcus epidermidis EPI1; assay: MIC, standard agar-dilution assay, Staphylococcus epidermidis EPI1; assay type: cell-based
[6] = test system: Staphylococcus epidermidis EPI2; assay: MIC, standard agar-dilution assay, Staphylococcus epidermidis EPI2; assay type: cell-based
[7] = test system: Streptococcus pyogenes C203; assay: MIC, standard agar-dilution assay, Streptococcus pyogenes C203; assay type: cell-based
[8] = test system: Streptococcus pneumoniae Park I; assay: microbe, parasite or virus in culture; assay type: cell-based
[9] = test system: Streptococcus Group D X66; assay: MIC, standard agar-dilution assay, Streptococcus Group D X66; assay type: cell-based
Streptococcus Group 9960 = assay: MIC, standard agar-dilution assay, Streptococcus Group 9960; assay type: cell-based; conditions: Streptococcus Group 9960, agar dilution
[10] = test system: Haemophilus influenzae Holt; assay: MIC, standard agar-dilution assay, Haemophilus influenzae Holt; assay type: cell-based
[11] = test system: Haemophilus influenzae R252; assay: MIC, standard agar-dilution assay, Haemophilus influenzae R252; assay type: cell-based; conditions: Haemophilus influenzae R252, ampicillin-resistant strain
Staphylococcus aureus = assay: MIC, broth-dilution microtiter test, Staphylococcus aureus; assay type: cell-based
Description: (§1) The MIC's in Table X were obtained using conventional broth-dilution microtiter tests.

Streptococcus bovis 80 = assay: MIC, broth-dilution microtiter test, Streptococcus bovis 80; assay type: cell-based
Description: as §1

[12] = test system: Pasteurella multocida 17E; assay: MIC, broth-dilution microtiter test, Pasteurella multocida 17E; assay type: cell-based
Description: as §1

[13] = test system: Pasteurella multocida 60A; assay: MIC, broth-dilution microtiter test, Pasteurella multocida 60A; assay type: cell-based
Description: as §1

[14] = test system: Pasteurella hemolytica 22C; assay: MIC, broth-dilution microtiter test, Pasteurella hemolytica 22C; assay type: cell-based; conditions: Pasteurella hemolytica 22C, broth-dilution microtiter
Description: as §1

Mycoplasma gallisepticum = assay: MIC, broth-dilution microtiter test, Mycoplasma gallisepticum; assay type: cell-based
Description: as §1

Mycoplasma synoviae = assay: MIC, broth-dilution microtiter test, Mycoplasma synoviae; assay type: cell-based
Description: as §1

Mycoplasma hyorhinis = assay: MIC, broth-dilution microtiter test, Mycoplasma hyorhinis; assay type: cell-based
Description: as §1

[15] = test system: Streptococcus pyogenes C203; assay: In vivo protection of mice experimentally infected with S. pyogenes C203; conditions: mice, doses given 1 and 4 hours post-infection; for ED50: Streptococcus pyogenes
Experimental: The C-20 modified derivatives of this invention have shown in vivo antimicrobial activity against experimentally-induced infections in laboratory animals. When two doses of test compound were administered to mice experimentally infected with S. pyogenes C203, the activity observed was measured as an ED50 value [effective dose in mg/kg to protect 50% of the test animals: see Warren Wick, et al., J. Bacteriol. 81, 233-235 (1961)].

[16] = Staphylococcus epidermidis, EPI1
[17] = Staphylococcus epidermidis, EPI2
[18] = Haemophilus influenzae Holt, ampicillin-sensitive strain, read-out: MIC
[19] = Streptococcus equinus, Streptococcus bovis 80, broth-dilution microtiter, read-out: MIC
[20] = Pasteurella multocida 17E, bovine isolate, broth-dilution microtiter, read-out: MIC
[21] = Pasteurella multocida 60A, avian isolate, broth-dilution microtiter, read-out: MIC
[22] = Mycoplasmopsis synoviae, Mycoplasma synoviae, broth-dilution microtiter, read-out: MIC
[23] = Mycoplasma hyorhinis, broth-dilution microtiter, read-out: MIC

Question: With `CCOC(=O)NN(CCC1CC(C)C(=O)C=CC(C)=CC(COC2OC(C)C(O)C(OC)C2OC)C(CC)OC(=O)CC(O)C(C)C1OC1OC(C)C(OC2CC(C)(O)C(O)C(C)O2)C(N(C)C)C1O)C(=O)OCC` (centres unmarked) [Compound 9, 20-DH-DO-20-[N-(Ethoxycarbonyl)-N-(ethoxycarbonylamino)]aminotylosin] as the molecule, how does the MIC ([1]; Staphylococcus aureus, X1.1) read?
Answer: 2 µg/mL (≈ 1.86 µM)

Question: What about the MIC ([2]; Staphylococcus aureus, V41) of the same molecule?
Answer: 2 µg/mL (≈ 1.86 µM)

Question: And the MIC ([3]; Staphylococcus aureus, X400)?
Answer: 8 µg/mL (≈ 7.43 µM)

Question: What about the MIC ([4]; Staphylococcus aureus, S13E) of the same molecule?
Answer: 2 µg/mL (≈ 1.86 µM)

Question: What about the MIC [5, 16] of the same molecule?
Answer: 4 µg/mL (≈ 3.72 µM)

Question: What about the MIC [6, 17] of the same molecule?
Answer: 2 µg/mL (≈ 1.86 µM)

Question: And the MIC ([7]; Streptococcus pyogenes, C203)?
Answer: 16 µg/mL (≈ 14.9 µM)

Question: And the MIC ([8]; Streptococcus pneumoniae)?
Answer: 2 µg/mL (≈ 1.86 µM)

Question: And the MIC [9]?
Answer: > 128 µg/mL

Question: What about the MIC (Streptococcus Group 9960; GROUP9960, read-out: MIC) of the same molecule?
Answer: > 128 µg/mL

Question: And the MIC [10, 18]?
Answer: > 128 µg/mL

Question: And the MIC ([11]; read-out: MIC)?
Answer: > 128 µg/mL

Question: What about the MIC (Staphylococcus aureus) of the same molecule?
Answer: 6.25 µg/mL (≈ 5.81 µM)

Question: And the MIC (Streptococcus bovis 80; [19])?
Answer: > 50 µg/mL

Question: And the MIC [12, 20]?
Answer: > 50 µg/mL

Question: What about the MIC [13, 21] of the same molecule?
Answer: > 50 µg/mL

Question: What about the MIC ([14]; read-out: MIC) of the same molecule?
Answer: > 50 µg/mL

Question: And the MIC (Mycoplasma gallisepticum; Mycoplasmoides gallisepticum)?
Answer: 1.56 µg/mL (≈ 1.45 µM)

Question: And the MIC (Mycoplasma synoviae; [22])?
Answer: 25 µg/mL (≈ 23.2 µM)

Question: What about the MIC (Mycoplasma hyorhinis; [23]) of the same molecule?
Answer: > 50 µg/mL

Question: Which results are given for `CCC1OC(=O)CC(O)C(C)C(OC2OC(C)C(O)C(N(C)C)C2O)C(CCO[N+](=O)[O-])CC(C)C(=O)C=CC(C)=CC1COC1OC(C)C(O)C(OC)C1OC` (centres unmarked) [Compound 28, 20-DH-20-O-NO2-desmycosin]?
Answer: MIC ([1]; Staphylococcus aureus, X1.1): 0.25 µg/mL (≈ 0.305 µM); MIC ([2]; Staphylococcus aureus, V41): 0.25 µg/mL (≈ 0.305 µM); MIC ([3]; Staphylococcus aureus, X400): 0.25 µg/mL (≈ 0.305 µM); MIC ([4]; Staphylococcus aureus, S13E): 0.25 µg/mL (≈ 0.305 µM); MIC [5, 16]: 0.25 µg/mL (≈ 0.305 µM); MIC [6, 17]: 0.25 µg/mL (≈ 0.305 µM); MIC ([7]; Streptococcus pyogenes, C203): 0.25 µg/mL (≈ 0.305 µM); MIC ([8]; Streptococcus pneumoniae Park I, agar dilution, read-out: MIC): 2 µg/mL (≈ 2.44 µM); MIC ([9]; Streptococcus Group D X66, agar dilution, read-out: MIC): 8 µg/mL (≈ 9.77 µM); MIC (Streptococcus Group 9960; GROUP9960, read-out: MIC): 8 µg/mL (≈ 9.77 µM); MIC [10, 18]: 16 µg/mL (≈ 19.5 µM); MIC ([11]; read-out: MIC): 16 µg/mL (≈ 19.5 µM); MIC (Staphylococcus aureus; broth-dilution microtiter, read-out: MIC): 1.56 µg/mL (≈ 1.9 µM); MIC (Streptococcus bovis 80; [19]): 12.5 µg/mL (≈ 15.3 µM); MIC [12, 20]: 25 µg/mL (≈ 30.5 µM); MIC ([13]; Pasteurella multocida, 60A): 50 µg/mL (≈ 61.1 µM); MIC ([14]; read-out: MIC): 25 µg/mL (≈ 30.5 µM); MIC (Mycoplasma gallisepticum; Mycoplasmoides gallisepticum, Mycoplasma gallisepticum, broth-dilution microtiter, read-out: MIC): 0.78 µg/mL (≈ 0.952 µM); MIC (Mycoplasma synoviae; [22]): 0.78 µg/mL (≈ 0.952 µM); MIC (Mycoplasma hyorhinis; Mycoplasma): 50 µg/mL (≈ 61.1 µM)

Question: Which results are given for `CCC1OC(=O)CC(O)C(C)C(OC2OC(C)CC(N(C)C)C2O)C(CCOc2ccccc2)CC(C)C(=O)C=CC(C)=CC1COC1OC(C)C(O)C(OC)C1OC` (centres unmarked) [Compound 70, 20-DH-20-O-Phenyl-4'-deoxydesmycosin]?
Answer: MIC ([1]; Staphylococcus aureus X1.1, agar dilution): 0.25 µg/mL (≈ 0.3 µM); MIC ([2]; Staphylococcus aureus V41, penicillin-resistant strain, agar dilution): 0.25 µg/mL (≈ 0.3 µM); MIC ([3]; Staphylococcus aureus X400, methicillin-resistant strain, agar dilution): 0.25 µg/mL (≈ 0.3 µM); MIC ([4]; Staphylococcus aureus S13E, agar dilution): 0.25 µg/mL (≈ 0.3 µM); MIC ([5]; Staphylococcus epidermidis EPI1, agar dilution): 0.25 µg/mL (≈ 0.3 µM); MIC ([6]; Staphylococcus epidermidis EPI2, agar dilution): 0.12 µg/mL (≈ 0.144 µM); MIC ([7]; Streptococcus pyogenes C203, agar dilution): 0.5 µg/mL (≈ 0.599 µM); MIC ([8]; Streptococcus pneumoniae Park I, agar dilution): 0.5 µg/mL (≈ 0.599 µM); MIC ([9]; Streptococcus Group D X66, agar dilution): 2 µg/mL (≈ 2.4 µM); MIC (Streptococcus Group 9960): 4 µg/mL (≈ 4.8 µM); MIC ([10]; Haemophilus influenzae Holt, ampicillin-sensitive strain, agar dilution): 4 µg/mL (≈ 4.8 µM); MIC ([11]; agar dilution): 4 µg/mL (≈ 4.8 µM); MIC (Staphylococcus aureus; broth-dilution microtiter): 0.78 µg/mL (≈ 0.935 µM); MIC (Streptococcus bovis 80; Streptococcus bovis 80, broth-dilution microtiter): 6.25 µg/mL (≈ 7.49 µM); MIC ([12]; Pasteurella multocida 17E, bovine isolate, broth-dilution microtiter): 12.5 µg/mL (≈ 15 µM); MIC ([13]; Pasteurella multocida 60A, avian isolate, broth-dilution microtiter): 12.5 µg/mL (≈ 15 µM); MIC [14]: 50 µg/mL (≈ 59.9 µM); MIC (Mycoplasma gallisepticum; Mycoplasma gallisepticum, broth-dilution microtiter): 0.39 µg/mL (≈ 0.468 µM); MIC (Mycoplasma synoviae; Mycoplasma synoviae, broth-dilution microtiter): 0.78 µg/mL (≈ 0.935 µM); MIC (Mycoplasma hyorhinis; Mycoplasma hyorhinis, broth-dilution microtiter): 12.5 µg/mL (≈ 15 µM); ED50, Oral ([15]; oral): 7 mg/kg × 2; ED50, Subcutaneous ([15]; subcutaneous): 3.1 mg/kg × 2

Question: With `CCC1OC(=O)CC(O)C(C)C(OC2OC(C)C(OC3CC(C)(O)C(O)C(C)O3)C(N(C)C)C2O)C(CCN2C(=O)c3ccccc3C2=O)CC(C)C(=O)C=CC(C)=CC1COC1OC(C)C(O)C(OC)C1OC` (centres unmarked) [Compound 1, 20-DH-DO-20-N-Phthalimidotylosin] as the molecule, how does the MIC ([1]; Staphylococcus aureus, X1.1) read?
Answer: 1 µg/mL (≈ 0.955 µM)

Question: What about the MIC ([2]; Staphylococcus aureus, V41) of the same molecule?
Answer: 1 µg/mL (≈ 0.955 µM)

Question: What about the MIC ([3]; Staphylococcus aureus, X400) of the same molecule?
Answer: 2 µg/mL (≈ 1.91 µM)

Question: And the MIC ([4]; Staphylococcus aureus, S13E)?
Answer: 1 µg/mL (≈ 0.955 µM)

Question: And the MIC [5, 16]?
Answer: 1 µg/mL (≈ 0.955 µM)

Question: What about the MIC [6, 17] of the same molecule?
Answer: 1 µg/mL (≈ 0.955 µM)

Question: And the MIC ([7]; Streptococcus pyogenes, C203)?
Answer: 2 µg/mL (≈ 1.91 µM)

Question: What about the MIC ([8]; Streptococcus pneumoniae) of the same molecule?
Answer: 32 µg/mL (≈ 30.6 µM)

Question: What about the MIC (Streptococcus Group 9960; GROUP9960, read-out: MIC) of the same molecule?
Answer: 128 µg/mL (≈ 122 µM)

Question: And the MIC ([10]; Haemophilus influenzae)?
Answer: > 128 µg/mL

Question: What about the MIC ([11]; read-out: MIC) of the same molecule?
Answer: > 128 µg/mL

Question: And the MIC (Staphylococcus aureus)?
Answer: 6.25 µg/mL (≈ 5.97 µM)

Question: What about the MIC (Streptococcus bovis 80; Streptococcus equinus, 80) of the same molecule?
Answer: 50 µg/mL (≈ 47.7 µM)

Question: And the MIC ([12]; Pasteurella multocida, 17E)?
Answer: > 50 µg/mL

Question: What about the MIC [13, 21] of the same molecule?
Answer: > 50 µg/mL

Question: What about the MIC ([14]; read-out: MIC) of the same molecule?
Answer: > 50 µg/mL

Question: What about the MIC (Mycoplasma gallisepticum; Mycoplasmoides gallisepticum) of the same molecule?
Answer: 3.12 µg/mL (≈ 2.98 µM)

Question: What about the MIC (Mycoplasma synoviae; Mycoplasmopsis synoviae) of the same molecule?
Answer: 6.25 µg/mL (≈ 5.97 µM)

Question: What about the MIC (Mycoplasma hyorhinis; [23]) of the same molecule?
Answer: > 50 µg/mL

Question: What about the ED50 ([15]; C203, sc, subcutaneous, read-out: ED50, Subcutaneous) of the same molecule?
Answer: > 6.3 mg/kg

Question: And the ED50 ([15]; C203, oral, read-out: ED50, Oral)?
Answer: 71 mg/kg
